Data taken from ChEMBL document CHEMBL1201862, “PubChem BioAssay data set” (2004).
Calls of active or inactive are those of the source.

Tests used:
[1] = miR-122 activators in hepatoma reporter cells, dose response, cell-based, Huh7 psiCHECK-miR122, Renilla luciferase, cherry-picked (AID 651956); type: functional;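 also: huh7 hepatoma cells stably carrying a psiCHECK-2 miR-122 sensor plasmid; renilla luciferase signal reporting endogenous miR-122 activity after 48 h compound exposure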
Paired box protein Pax-8 = Paired box protein Pax-8 (Homo sapiens, UniProt Q06710); assay: inhibitors of PAX8-driven TPO luciferase reporter, dose response, RMG-I cells, cherry-pick (AID 687027); type: functional, cell-based;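 also: luciferase reporter driven by Pax8 target thyroperoxidase promoter measured by SteadyGlo luminescence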
[2] = inhibitors of PGC1a acetylation in cells, dose response, cell-based, cherry-picked samples (AID 720514); type: functional;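 also: potency may reflect raised or lowered acetylation signal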
[3] = NIH:OVCAR-3 ovarian cancer cell cytotoxicity, dose response, PAX8 inhibitor project, plate reader, dry powder samples (AID 743044); type: functional, cell-based
[4] = HEK293T cytotoxicity, dose response, cytotoxicity control for miR-122 modulator project, cell-based, inhibitor set, cherry-pick, set 2 (AID 720697); type: functional
[5] = P. falciparum 3D7-ScDHODH growth inhibitors, dose response, SYBR Green, dry powder samples (AID 1159570); type: functional, cell-based;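 also: parasite growth measured after 72 hours of compound exposure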
[6] = P. falciparum Dd2 growth inhibitors, dose response, SYBR Green, dry powder samples, set 9 (AID 1159568); type: functional, cell-based
[7] = P. falciparum Dd2 growth inhibitors, dose response, SYBR Green, cherry-picked samples (AID 1159567); type: functional, cell-based
[8] = P. falciparum Dd2 growth inhibitors, dose response, SYBR Green, dry powder samples (AID 1159566); type: functional, cell-based;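 also: potency for growth inhibition with lower SYBR green DNA signal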
[9] = Plasmodium falciparum Dd2 Sybr green parasite growth Measured in Cell-Based and Microorganism Combination System Using Plate Reader - 2153-01_Inhibitor_Dose_DryPowder_Activity_Set3.; type: functional
[10] = P. falciparum ATP4 D1247Y mutant growth inhibitors, dose response, NITD609-resistant line, SYBR Green, dry powder (AID 1159571); type: functional, cell-based;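 also: parasites synchronized at ring stage by sorbitol before testing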
[11] = target: Induced myeloid leukemia cell differentiation protein Mcl-1 (Homo sapiens, UniProt Q07820); type: functional
[12] = target: T1, Carboxy-terminal domain RNA polymerase II polypeptide A small phosphatase 1 (Homo sapiens, UniProt Q9GZU7); assay: inhibitors of CTDSP1, concentration-response testing, biochemical assay, absorbance-based, actives from ultra-high-throughput screening (AID 540297); type: functional
T1 sequence (Q9GZU7 whole entry): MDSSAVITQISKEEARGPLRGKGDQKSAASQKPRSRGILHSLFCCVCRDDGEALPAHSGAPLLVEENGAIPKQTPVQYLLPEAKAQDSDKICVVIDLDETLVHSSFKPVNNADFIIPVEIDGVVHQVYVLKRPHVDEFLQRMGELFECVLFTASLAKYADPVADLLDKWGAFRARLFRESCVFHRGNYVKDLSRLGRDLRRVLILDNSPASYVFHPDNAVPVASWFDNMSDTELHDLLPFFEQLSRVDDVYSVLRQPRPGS

Caspase-6 = target: T2, Caspase-6 (Homo sapiens, UniProt P55212); assay: human caspase-6 inhibitors, dose response, biochemical, VEID-R110 fluorescence, cherry-pick (AID 720632)
T2 sequence (P55212 whole entry): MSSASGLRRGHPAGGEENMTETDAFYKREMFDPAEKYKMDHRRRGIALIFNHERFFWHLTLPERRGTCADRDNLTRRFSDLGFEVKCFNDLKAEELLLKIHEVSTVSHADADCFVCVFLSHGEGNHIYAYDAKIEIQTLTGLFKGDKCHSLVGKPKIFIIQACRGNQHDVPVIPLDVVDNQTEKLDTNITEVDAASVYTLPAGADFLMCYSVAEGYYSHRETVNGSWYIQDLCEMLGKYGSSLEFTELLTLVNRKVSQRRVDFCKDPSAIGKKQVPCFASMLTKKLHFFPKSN

Caspase-7 = Caspase-7 (Homo sapiens, UniProt P55210); assay: human caspase-7 inhibitors, dose response, selectivity assay for caspase-6 inhibitor project, biochemical, DEVD-R110 fluorescence, cherry-pick (AID 743295)
[13] = target: T3, RNA-binding protein pos-1 (Caenorhabditis elegans, UniProt G5EF15); assay: inhibitors of POS-1/mex-3 RNA binding, dose response, biochemical, fluorescence polarization (AID 1964);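 also: purified POS-1 fused to maltose binding protein made in E. coli; potency of compounds blocking POS-1 binding to fluorescent RNA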
T3 sequence (G5EF15 whole entry): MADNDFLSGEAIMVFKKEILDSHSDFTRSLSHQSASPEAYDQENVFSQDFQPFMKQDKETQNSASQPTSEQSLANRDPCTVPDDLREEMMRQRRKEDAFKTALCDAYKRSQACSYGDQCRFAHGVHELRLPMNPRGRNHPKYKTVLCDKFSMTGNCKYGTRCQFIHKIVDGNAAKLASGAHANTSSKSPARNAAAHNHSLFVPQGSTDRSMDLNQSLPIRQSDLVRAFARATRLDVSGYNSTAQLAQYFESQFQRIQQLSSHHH

[14] = target: T4, Zinc finger protein mex-5 (Caenorhabditis elegans, UniProt Q9XUB2); assay: MEX-5/TCR-2 RNA interaction inhibitors, dose response, biochemical, C. elegans, fluorescence polarization (AID 1960)
T4 sequence (Q9XUB2 whole entry): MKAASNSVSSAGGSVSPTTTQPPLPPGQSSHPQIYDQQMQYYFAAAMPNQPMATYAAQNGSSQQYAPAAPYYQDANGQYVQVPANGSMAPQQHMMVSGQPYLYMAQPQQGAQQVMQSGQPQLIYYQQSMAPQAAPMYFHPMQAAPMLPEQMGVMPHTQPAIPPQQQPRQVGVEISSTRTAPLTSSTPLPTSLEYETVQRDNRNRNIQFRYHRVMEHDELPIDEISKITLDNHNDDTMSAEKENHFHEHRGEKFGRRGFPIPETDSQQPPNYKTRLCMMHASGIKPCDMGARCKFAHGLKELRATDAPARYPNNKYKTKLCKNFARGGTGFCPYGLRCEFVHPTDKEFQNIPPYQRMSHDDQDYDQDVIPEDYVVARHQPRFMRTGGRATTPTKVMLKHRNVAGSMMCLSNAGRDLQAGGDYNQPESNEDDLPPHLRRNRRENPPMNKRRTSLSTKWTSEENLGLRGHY

Mu-type opioid receptor = Mu-type opioid receptor (Homo sapiens, UniProt P35372); type: functional, cell-based;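 also: U2OS cells with beta-arrestin recruitment to OPRM1 by beta-gal complementation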
[15] = target: 5-hydroxytryptamine receptor 2A (Mus musculus, UniProt P35363); type: functional, cell-based;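 also: CHO-K1 cells with tagged receptor and beta-arrestin; agonist potency measured as compound-induced activation of the receptor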
cells [16] = type: functional, cell-based
[17] = target: T5, Trace amine-associated receptor 1 (Homo sapiens, UniProt Q96RJ0); assay: Fluorescence-based cell-based high throughput dose response assay to identify agonists of the human trace amine associated receptor 1 (TAAR1).; type: functional
T5 sequence (Q96RJ0 whole entry): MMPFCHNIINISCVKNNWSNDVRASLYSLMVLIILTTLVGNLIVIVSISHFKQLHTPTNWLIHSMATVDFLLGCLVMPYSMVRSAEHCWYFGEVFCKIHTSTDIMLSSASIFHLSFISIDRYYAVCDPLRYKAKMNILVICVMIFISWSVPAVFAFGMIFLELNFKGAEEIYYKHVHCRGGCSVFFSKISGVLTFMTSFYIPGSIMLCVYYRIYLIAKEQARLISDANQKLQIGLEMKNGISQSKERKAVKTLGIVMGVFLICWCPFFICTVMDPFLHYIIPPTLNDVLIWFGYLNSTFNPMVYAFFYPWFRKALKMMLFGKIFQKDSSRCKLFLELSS

[18] = target: T5, Trace amine-associated receptor 1; assay: Counterscreen for agonists of the human trace amine associated receptor 1 (hTAAR1): Fluorescence-based cell-based high throughput dose response assay to identify hTAAR1 agonist that also desensitize TAAR1 receptor response.; type: functional
cells [19] = type: functional, cell-based; remark: listed apart in the source
Kallikrein-7 = Kallikrein-7 (Homo sapiens, UniProt P49862); assay: Fluorescence Intensity-based biochemical primary high throughput dose response assay to identify activators of kallikrein-7 (K7) zymogen.
[20] = target: Glucose-6-phosphate 1-dehydrogenase (Homo sapiens, UniProt P11413); assay: human G6PD enzyme inhibitors, dose response, selectivity assay for P. falciparum G6PD inhibitor project, biochemical, fluorescence (AID 504792); type: functional
[21] = target: T6, Oxysterols receptor LXR-beta (Homo sapiens, UniProt P55055); type: functional, cell-based;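 also: Cell-based luminescence dose-response assay of agonist activity at LXR, run as a confirmatory counterscreen to a daf-12 agonist screen; HEK293 cells with Gal4-LXR fusion and GAL4-driven luciferase reporter; agonist potency from rising luciferase signal of a Gal4-LXR reporter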
T6 sequence (P55055 whole entry): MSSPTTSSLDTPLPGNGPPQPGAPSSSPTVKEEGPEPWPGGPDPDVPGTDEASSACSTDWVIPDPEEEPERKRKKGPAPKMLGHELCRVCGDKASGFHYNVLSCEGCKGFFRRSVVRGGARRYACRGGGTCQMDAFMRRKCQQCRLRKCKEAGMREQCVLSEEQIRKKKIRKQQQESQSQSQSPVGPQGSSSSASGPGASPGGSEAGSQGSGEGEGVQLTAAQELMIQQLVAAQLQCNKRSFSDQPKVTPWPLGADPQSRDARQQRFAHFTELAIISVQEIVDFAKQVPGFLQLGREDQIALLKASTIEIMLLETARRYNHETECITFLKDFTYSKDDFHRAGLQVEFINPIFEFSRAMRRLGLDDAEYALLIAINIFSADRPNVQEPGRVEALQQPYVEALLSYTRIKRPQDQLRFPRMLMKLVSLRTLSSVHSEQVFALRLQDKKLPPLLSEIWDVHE

cells [22] = assay: cells

Chain of Kallikrein-7 (P49862 whole entry): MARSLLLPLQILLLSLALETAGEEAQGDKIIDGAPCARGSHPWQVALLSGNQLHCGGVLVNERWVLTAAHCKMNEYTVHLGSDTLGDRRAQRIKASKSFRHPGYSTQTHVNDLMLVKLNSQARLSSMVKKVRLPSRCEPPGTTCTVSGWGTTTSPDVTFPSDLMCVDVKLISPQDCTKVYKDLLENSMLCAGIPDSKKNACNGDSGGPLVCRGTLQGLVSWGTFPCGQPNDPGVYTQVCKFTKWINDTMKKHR
Chain of Mu-type opioid receptor (P35372 whole entry): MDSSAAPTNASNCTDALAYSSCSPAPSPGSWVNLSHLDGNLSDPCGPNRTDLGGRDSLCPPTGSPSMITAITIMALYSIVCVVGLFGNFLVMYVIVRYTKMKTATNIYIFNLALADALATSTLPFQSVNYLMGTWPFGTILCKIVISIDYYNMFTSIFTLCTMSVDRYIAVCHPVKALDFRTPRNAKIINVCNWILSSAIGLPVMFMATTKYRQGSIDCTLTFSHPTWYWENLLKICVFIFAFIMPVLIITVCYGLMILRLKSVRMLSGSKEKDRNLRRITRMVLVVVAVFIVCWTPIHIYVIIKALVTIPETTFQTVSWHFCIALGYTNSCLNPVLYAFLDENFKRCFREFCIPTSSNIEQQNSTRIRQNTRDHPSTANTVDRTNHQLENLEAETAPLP
Chain of Glucose-6-phosphate 1-dehydrogenase (P11413 whole entry, the tested form may be a part): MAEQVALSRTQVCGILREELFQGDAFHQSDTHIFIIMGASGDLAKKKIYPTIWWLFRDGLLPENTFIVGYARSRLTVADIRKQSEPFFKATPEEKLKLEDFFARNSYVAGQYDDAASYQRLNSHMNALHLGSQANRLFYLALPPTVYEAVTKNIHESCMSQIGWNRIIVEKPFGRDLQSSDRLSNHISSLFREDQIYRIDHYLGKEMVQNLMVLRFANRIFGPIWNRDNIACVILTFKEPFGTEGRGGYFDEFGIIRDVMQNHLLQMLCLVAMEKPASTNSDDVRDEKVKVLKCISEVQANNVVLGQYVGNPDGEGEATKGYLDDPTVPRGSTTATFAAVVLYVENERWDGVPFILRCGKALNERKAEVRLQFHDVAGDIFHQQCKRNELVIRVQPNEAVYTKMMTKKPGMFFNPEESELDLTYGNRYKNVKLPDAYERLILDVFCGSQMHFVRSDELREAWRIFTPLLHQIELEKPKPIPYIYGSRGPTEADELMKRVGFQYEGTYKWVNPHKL
Chain of Caspase-7 (P55210 24-198 limits assumed): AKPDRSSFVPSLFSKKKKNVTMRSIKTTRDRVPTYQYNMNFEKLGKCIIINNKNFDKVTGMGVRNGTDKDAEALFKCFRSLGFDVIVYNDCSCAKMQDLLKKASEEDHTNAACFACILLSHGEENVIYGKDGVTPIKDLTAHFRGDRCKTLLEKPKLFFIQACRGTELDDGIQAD
Chain of Caspase-7 (P55210 207-303 limits assumed): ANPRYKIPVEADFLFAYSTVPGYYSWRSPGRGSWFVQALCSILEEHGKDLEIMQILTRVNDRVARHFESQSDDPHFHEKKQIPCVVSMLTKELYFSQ
Chain of Induced myeloid leukemia cell differentiation protein Mcl-1 (Q07820 whole entry, the tested form may be a part): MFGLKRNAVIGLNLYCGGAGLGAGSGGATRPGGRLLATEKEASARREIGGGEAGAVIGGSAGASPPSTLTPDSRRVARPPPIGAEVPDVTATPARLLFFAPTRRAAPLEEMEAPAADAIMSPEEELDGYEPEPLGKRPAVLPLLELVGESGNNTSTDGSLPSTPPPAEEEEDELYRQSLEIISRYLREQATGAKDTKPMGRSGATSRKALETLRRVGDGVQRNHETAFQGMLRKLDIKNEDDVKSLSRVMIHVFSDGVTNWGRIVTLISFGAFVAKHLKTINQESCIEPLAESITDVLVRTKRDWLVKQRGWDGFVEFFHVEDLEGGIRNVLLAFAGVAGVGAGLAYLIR
Chain of 5-hydroxytryptamine receptor 2A (P35363 whole entry): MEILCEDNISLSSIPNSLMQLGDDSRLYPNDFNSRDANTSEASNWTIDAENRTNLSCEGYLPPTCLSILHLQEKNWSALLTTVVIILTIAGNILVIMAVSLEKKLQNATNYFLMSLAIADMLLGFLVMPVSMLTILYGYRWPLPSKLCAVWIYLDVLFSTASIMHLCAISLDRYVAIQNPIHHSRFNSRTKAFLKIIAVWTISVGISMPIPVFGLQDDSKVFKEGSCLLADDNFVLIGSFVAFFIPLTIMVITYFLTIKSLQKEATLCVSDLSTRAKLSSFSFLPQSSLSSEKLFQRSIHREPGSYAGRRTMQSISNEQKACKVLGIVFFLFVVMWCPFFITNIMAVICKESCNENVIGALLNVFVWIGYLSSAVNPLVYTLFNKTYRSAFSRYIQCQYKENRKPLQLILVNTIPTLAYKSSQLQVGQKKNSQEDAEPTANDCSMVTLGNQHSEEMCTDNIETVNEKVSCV
Chain of Paired box protein Pax-8 (Q06710 whole entry): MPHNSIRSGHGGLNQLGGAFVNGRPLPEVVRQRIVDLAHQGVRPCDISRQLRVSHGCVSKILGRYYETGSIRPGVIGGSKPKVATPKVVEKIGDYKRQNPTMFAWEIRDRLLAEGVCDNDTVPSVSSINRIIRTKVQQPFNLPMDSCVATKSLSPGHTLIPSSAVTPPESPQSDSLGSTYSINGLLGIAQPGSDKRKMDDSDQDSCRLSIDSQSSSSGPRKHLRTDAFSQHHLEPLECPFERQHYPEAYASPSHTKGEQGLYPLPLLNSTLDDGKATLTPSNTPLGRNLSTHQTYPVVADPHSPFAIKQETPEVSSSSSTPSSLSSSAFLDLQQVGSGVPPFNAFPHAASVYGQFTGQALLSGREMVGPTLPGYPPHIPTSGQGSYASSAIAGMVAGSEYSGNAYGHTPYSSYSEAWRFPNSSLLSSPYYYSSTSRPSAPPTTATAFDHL

With `COc1ccc(C#Cc2ccc([C@H]3[C@@H](CO)N4CCCCN(C(=O)Nc5ccccc5)C[C@H]34)cc2)cc1` the AC50 [1] was 6.04 µM (active), the AC50 (Paired box protein Pax-8) was 12.5 µM (active) and the AC50 [2] was 16.4 µM (active). The AC50 [3] was 30.4 µM (active) and the AC50 [4] was 7.88 µM (active).
In the case of `CCCNC(=O)Nc1ccc2c(c1)OC[C@@H](C)N(Cc1ccccc1)C[C@@H](C)[C@H](OC)CN(C)C2=O`, the AC50 [5] is reported as 3.25 µM (active), the AC50 [6] is reported as 0.307 µM (active) and the AC50 [7] is reported as 1.43 µM (active). For the same compound, the AC50 [8] was 0.154 µM (active), the AC50 [9] was 0.826 µM (active) and the AC50 [10] was 0.828 µM (active).
For `CCCSC1=N/C(=C\c2ccc([N+](=O)[O-])o2)C(=O)S1`, the IC50 [11] was 3.88 µM (active), the IC50 [12] was 4.92 µM (active) and the AC50 (Caspase-6) was 2.93 µM (active). The AC50 (Caspase-7) was 45.9 µM (active).
For `CN1C[C@H](CO)C=C2c3cccc4[nH]cc(c34)C[C@H]21`, the EC50 [13] was 20.6 µM (active), the EC50 [14] was 53.2 µM (inconclusive) and the EC50 (Mu-type opioid receptor) was 92.5 µM (inactive). The EC50 [15] was 0.018 µM (active), the IC50 (cells [16]) was > 29.9 µM (inactive) and the EC50 [17] was 7.63 µM (active). The IC50 [18] was 4.58 µM (active), the EC50 (cells [19]) was > 29.9 µM (inactive) and the EC50 (Kallikrein-7) was > 7.72 µM (active).
With `CN1/C(=C\C(=O)c2cccs2)Sc2ccccc21` the IC50 [20] was > 80 µM (inactive), the EC50 [21] was > 67.5 µM (inactive) and the EC50 (cells [22]) was > 67.5 µM (inactive).
With `CN(C(=O)c1cc2c(=O)n3ccccc3nc2s1)C1CCCCC1` the EC50 (Kallikrein-7) was 24.8 µM (inactive).
